Read-outs that look alike come from different tables or passages of the source.
How the values were obtained:
SaMetRS [1] = target: T1, SaMetRS (Staphylococcus aureus, UniProt P67578); assay: biochemical; format: binding
T1 construct: full-length SaMetRS (SaMetRS-FL) (residues 1–657) was expressed and purified in the same manner; made in house; host or cells: E. coli BL21 (DE3)
Procedure: Ligand binding usually stabilizes the protein during the thermal denaturation process, and a tighter binder causes a larger positive shift in the protein melting temperature (Tm) ([38]). The binding of ligands to SaMetRS was evaluated by the fluorescence-based thermal shift assay as described ([39]). Briefly, mixtures with a final volume of 20 μl that contained 4 μg of SaMetRS-FL, 4 × SYPRO orange fluorescence dye (Sigma-Aldrich) and different ligands (10 μM REP8839, 5 mM L-Met, 5 mM ATP, or 1 mM fragments) in TSA buffer (100 mM Tris pH 8.0, 150 mM NaCl) were prepared in 96-well plates. The mixtures were incubated at 25°C for 10 min and then heated from 25°C to 95°C at a rate of 1°C/min. The fluorescence intensity was recorded every 20 s by using a StepOnePlus Real-Time PCR instrument (Life Technologies). The melting curves, using the fluorescence signal as the ordinate and the temperature as the abscissa, were fitted by using StepOne™ software v2.3 to obtain the melting temperature (Tm) of the protein. Triplicate assays were performed, and the average Tm values were used. The thermal stabilization of SaMetRS that was caused by a ligand (a fragment, substrate or inhibitor) was termed ΔTm, and it was calculated by subtracting the Tm of SaMetRS without the ligand from the Tm of SaMetRS supplemented with the ligand as follows:
Fragment screening is a fast-growing strategy for designing drugs with novel scaffolds as well as for identifying new druggable sites ([51],[52]). A total of 1049 fragments or low molecular weight natural products were screened by using TSA to search for new binders to SaMetRS. Considering the potential beneficial effect of ATP on ligand binding to SaMetRS, a parallel experiment was carried out using SaMetRS, which was saturated with 5 mM ATP. Fragments were diluted to a final concentration of 1.0 mM. The Tm of apo or ATP-bound SaMetRS without adding fragments was used as a blank control, and REP8839 was used as a positive control. We considered fragments that could increase the Tm value of SaMetRS by more than 1.0°C (ΔTm > 1.0°C) as positive hits (Figure 4B).

SaMetRS [2] = target: T1, SaMetRS; assay: pretransfer editing assay (malachite green); format: biochemical
Procedure: A pretransfer editing assay was employed to evaluate the enzymatic activity of MetRS and the inhibitory activity of fragments to this enzyme. MetRS uses ATP to misactivate the noncognate L-norleucine (L-Norleu) to produce norleucyl adenylate and pyrophosphate (PPi). Norleucyl adenylate was hydrolyzed in the active site through pretransfer editing, and PPi was hydrolyzed by pyrophosphatase (PPiase). The pretransfer editing activity of MetRS was evaluated by measuring phosphate ion (Pi) production using a malachite green assay ([40],[41]). The assays were performed in 80 μl reaction mixtures consisting of 160 nM SaMetRS-FL or SaMetRS-dC or HcMetRS-dN or HcMetRS-dN/C, 100 μM ATP, 20 mM L-Norleu and 50 μg/ml PPiase in reaction buffer (30 mM HEPES pH 7.5, 150 mM NaCl, 30 mM KCl, 40 mM MgCl2, 1 mM DTT) at room temperature ([42]). The pyrophosphates released from the pretransfer editing reaction were decomposed into phosphates by PPiase. Then, 20 μl of malachite green reagent (2.45 M sulfuric acid, 0.1% w/v malachite green, 1.5% w/v ammonium molybdate tetrahydrate, and 0.2% v/v Tween 20) was added to each reaction, and the absorbance at 620 nm was recorded using a Synergy H1 microplate reader.
To measure the inhibitory activity of compounds against SaMetRS, the reactions of an 80 μl mixture consisting of 160 nM SaMetRS-FL (or HcMetRS-dN), 100 μM ATP, 20 mM L-norleucine, 50 μg/ml PPiase and 1 mM fragment (or inhibitor at different concentrations) in reaction buffer were incubated at room temperature for 30 min. Then, 20 μl of malachite green reagent was added to each reaction, and absorbance at 620 nm was recorded. The absorbance at 620 nm of the reaction without adding a compound (fragment or inhibitor) was A1, the absorbance of the reaction without adding MetRS was A0, and the absorbance of the reaction with adding a compound (fragment or inhibitor) was AC. The inhibitory rates of compounds on enzyme activity = (A1 – AC)/(A1 – A0) ×100%. For compounds P80, P21 and REP8839, the inhibitory rates were measured at various concentrations, and the data were fitted in GraphPad Prism 8 using the ‘log[inhibitor] versus response’ equation to calculate the IC50 values.
The inhibitory rates of these fragments against SaMetRS were then tested by a pretransfer editing assay. In the assay, MetRS used ATP to misactivate noncognate L-norleucine (L-Norleu) to produce norleucyl adenylate and PPi. The norleucyl adenylate was then quickly hydrolyzed (or ‘edited’) by MetRS in a tRNA-independent manner ([53–55]). In addition, PPi is hydrolyzed by pyrophosphatase, and phosphate production reflects the activity of MetRS in L-Norleu misactivation and pretransfer editing.

SaMetRS [3] = target: T1, SaMetRS; assay: isothermal titration calorimetry (ITC) assay; format: binding
Procedure: The affinities of ligands to SaMetRS were measured by using a MicroCal PEAQ-ITC microcalorimeter. […] The interval between two injections was 150 s. The disassociation constants (Kd) were determined by fitting the calorimetric data to a one-site binding model by using MicroCal PEAQ-ITC analysis software.

HcMetRS = target: T2, HcMetRS (Homo sapiens, UniProt P56192); assay: tRNA-dependent ATP consumption assay; format: biochemical; conditions: HcMetRS-dN, even at high concentrations
T2 construct: a truncated HcMetRS without the N-terminal part (HcMetRS-dN) (residues 221–900); His6-SUMO (N, cleaved yes); made in house; host or cells: E. coli BL21 (DE3)
T2 sequence (P56192 221-900): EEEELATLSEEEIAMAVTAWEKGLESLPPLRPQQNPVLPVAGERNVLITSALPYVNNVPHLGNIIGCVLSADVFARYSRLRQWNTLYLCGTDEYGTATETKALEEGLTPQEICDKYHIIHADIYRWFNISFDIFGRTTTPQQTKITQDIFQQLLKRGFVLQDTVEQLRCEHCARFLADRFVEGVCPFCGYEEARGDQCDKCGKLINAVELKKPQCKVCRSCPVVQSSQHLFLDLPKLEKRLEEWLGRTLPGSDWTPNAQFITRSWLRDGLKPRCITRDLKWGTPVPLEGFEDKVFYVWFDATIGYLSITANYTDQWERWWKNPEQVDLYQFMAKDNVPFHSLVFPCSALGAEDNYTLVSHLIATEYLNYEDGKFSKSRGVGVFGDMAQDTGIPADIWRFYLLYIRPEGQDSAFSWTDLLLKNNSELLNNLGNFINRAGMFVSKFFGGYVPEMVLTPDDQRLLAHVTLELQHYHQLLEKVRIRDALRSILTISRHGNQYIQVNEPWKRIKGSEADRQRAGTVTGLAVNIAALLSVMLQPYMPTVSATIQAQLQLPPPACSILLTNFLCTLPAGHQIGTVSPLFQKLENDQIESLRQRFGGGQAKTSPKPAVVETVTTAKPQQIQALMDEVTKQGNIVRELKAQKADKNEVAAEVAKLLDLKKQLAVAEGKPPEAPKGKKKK
Procedure: (§1) The inhibitory activity of the compounds against the tRNA aminoacylation reaction of MetRS was evaluated by employing an ATP consumption assay ([43],[44]). In brief, 10 μl reactions consisting of 50 nM SaMetRS-FL or 100 nM HcMetRS-dN, 4 μM ATP, 500 μM L-Met, 0.5 mg/ml E. coli total tRNA in reaction buffer (30 mM HEPES pH 7.5, 150 mM NaCl, 30 mM KCl, 40 mM MgCl2, 0.1% BSA and 1 mM DTT) and compounds (P80, P21 and REP8839) at various concentrations were prepared and incubated at room temperature for 30 min. The reactions were then stopped by adding 10 μl of Kinase-Glo™ Reagent (Promega) and incubated at room temperature for 15 min. The luminescence, which reflects the concentration of the remaining ATP, was read on a Synergy H1 microplate reader (BioTek). The luminescence of the reaction without adding a compound was Lum1, the absorbance of the reaction without adding MetRS was Lum0, and the luminescence of the reaction with the added compound was LumC. The inhibitory rates of a compound on enzyme activity = (LumC – Lum1)/(Lum0 – Lum1) × 100%. The data were fitted in GraphPad Prism 8 with the ‘log[compound] versus response’ equation to calculate the IC50 values.

SaMetRS [4] = target: T1, SaMetRS; assay: tRNA-dependent ATP consumption assay; format: biochemical
Procedure: as §1

[5] = read-out: ΔTm (°C) Tm(Frg)-Tm(apo)
[6] = read-out: ΔTm (°C) Tm(Frg+ATP)-Tm(ATP)

T1 sequence (P67578 whole entry, the tested form may be a part): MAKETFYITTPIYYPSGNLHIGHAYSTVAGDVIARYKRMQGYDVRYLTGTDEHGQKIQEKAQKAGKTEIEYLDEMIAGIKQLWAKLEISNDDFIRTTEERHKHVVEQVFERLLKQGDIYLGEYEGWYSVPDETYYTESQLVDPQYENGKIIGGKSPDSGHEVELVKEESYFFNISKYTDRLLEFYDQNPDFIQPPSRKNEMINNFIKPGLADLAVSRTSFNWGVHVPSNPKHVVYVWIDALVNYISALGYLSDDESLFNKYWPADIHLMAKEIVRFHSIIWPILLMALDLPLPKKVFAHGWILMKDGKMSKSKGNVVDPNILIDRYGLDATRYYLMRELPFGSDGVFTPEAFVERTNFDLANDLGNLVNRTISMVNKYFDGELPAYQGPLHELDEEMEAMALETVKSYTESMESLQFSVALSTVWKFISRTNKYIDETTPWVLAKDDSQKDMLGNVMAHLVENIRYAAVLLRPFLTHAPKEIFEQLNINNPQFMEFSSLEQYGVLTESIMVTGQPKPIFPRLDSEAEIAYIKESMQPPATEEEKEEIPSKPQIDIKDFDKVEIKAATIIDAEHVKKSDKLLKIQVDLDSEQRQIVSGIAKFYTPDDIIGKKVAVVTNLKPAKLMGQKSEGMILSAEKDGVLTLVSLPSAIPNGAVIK

SMILES	ΔTm at 1000 µM (SaMetRS [1]; [5])	ΔTm at 1000 µM (SaMetRS [1]; [6])	inhibition at 1000 µM (SaMetRS [2]; read-out: Inhibitory rate (%))	further results
O=[N+]([O-])c1ccc(O)c(O)c1 [A6]	1.1 °C	1.2 °C	< 20%	
Nc1ncnc2c1ncn2[C@@H]1O[C@H](COP(=O)(O)OP(=O)(O)OP(=O)(O)O)[C@@H](O)[C@H]1O [ATP]				fold more potent Kd of ATP with M3-88 premixed versus apo protein (SaMetRS [3]; SaMetRS premixed with M3-88 vs apo): approximately 4 fold; Kd (SaMetRS [3]; apo protein, 25°C, read-out: Kd, ATP to SaMetRS): 52 ± 6.7 µM; Kd (SaMetRS [3]; read-out: Kd, ATP to SaMetRS saturated with M3-88, SaMetRS preincubated with 5 mM M3-88, 25°C): 14.1 ± 0.7 µM
N[C@@H]1C[C@@H]1c1ccccc1 [B54]			< 20%	
NCc1c[nH]c2ccccc12 [B63]	0.8 °C	1.7 °C	38.2 ± 3.5%	
O=[N+]([O-])c1ccc2[nH]ncc2c1 [B128]	1.3 °C	2.1 °C	30.4 ± 1.9%	
Nc1nc2ccccc2[nH]1 [M1-68]	0.1 °C	1.3 °C	< 20%	
NC1Cc2ccccc2C1 [M2-80]	-0.1 °C	2.5 °C	< 20%	
NCCNc1cccc2ccccc12 [M2-293]		1.3 °C	67.3 ± 1.1%	
Clc1cn2ccsc2n1 [M3-146]	-0.1 °C	1.8 °C	< 20%	
CNC(=O)c1ccc2c(c1)nc(-c1ccc(Br)c(O)c1)n2C(CNC(=O)OCc1ccccc1)c1ccc(OC)c(OC)c1 (centres unmarked) [P21]				inhibition of HcMetRS (HcMetRS): did not significantly inhibit; IC50 (SaMetRS [4]; 50 nM SaMetRS-FL, 4 μM ATP, 500 μM L-Met, read-out: IC50, ATP consumption assay): 3.11 ± 0.48 µM; IC50 (SaMetRS [2]): 0.428 ± 0.053 µM
CNC(=O)c1ccc2c(c1)nc(-c1ccc(Br)c(O)c1)n2C(CNC(=O)COc1ccccc1C(C)(C)C)c1ccc(OC)c(OC)c1 (centres unmarked) [P80]				inhibition of HcMetRS (HcMetRS): did not significantly inhibit; IC50 (SaMetRS [4]): 0.223 ± 0.0123 µM; IC50 (SaMetRS [2]): 0.0946 ± 0.0067 µM
C=C(F)c1sc(CNCCCNc2cc(O)c3ccccc3n2)c(C)c1Br [REP8839, reference compound]				ΔTm at 10 µM (SaMetRS [1]; [5]): 11.8 °C; ΔTm at 10 µM (SaMetRS [1]; [6]): 17.5 °C; inhibition at 10 µM (SaMetRS [2]; read-out: Inhibitory rate (%)): > 99%
CC(C)(C)Sc1cccnc1N [T2-15]	2.5 °C	2.5 °C	65.3 ± 3.1%	Kd (SaMetRS [3]; SaMetRS apo, without ATP, 25°C, read-out: Kd, fragment to SaMetRS alone): 78.7 ± 7.1 µM; Kd (SaMetRS [3]; SaMetRS preincubated with 5 mM ATP, 25°C, read-out: Kd, fragment to SaMetRS saturated with ATP): 54.6 ± 2.6 µM

Reference: PMC9071491, “Fragment screening and structural analyses highlight the ATP-assisted ligand binding for inhibitor discovery against type 1 methionyl-tRNA synthetase” (Nucleic Acids Research, 2022)
